Results from patent US4748240A, “Psychotropic bicyclic imides” (American Home Products Corporation, priority 1987, dated 1988).
pKi: −log10 of the molar value. Read-outs that look alike come from different tables or passages of the source.

How the values were obtained:
[1] = system: conditioned avoidance responding; test: Conditioned avoidance, shelf-jump response; assay type: in vivo, rat (male CD, Charles River); details: Rattus norvegicus, ip; single dose 40 mg/kg
Excerpt: (§1) The antipsychotic properties of the compounds of this invention were established by standard pharmacologically accepted procedures involving conditioned avoidance studies in which trained male CD rats (Charles River), 400-450 g. body weight are exposed to a fifteen second warning tone (conditioned stimulus) continued for an additional fifteen seconds accompanied by electric shock. The rat can avoid the electric shock by jumping to an exposed shelf (shelf-jump response). A response during the initial warning tone is considered an avoidance response, while a response during shock delivery is considered as escape response. The shelf-jump response test procedure follows that of Herman et al., Comm. in Psychopharm., 3, pp. 165-171 (1979). The compounds of this invention were tested at a single dose (40 mg./kg. i.p.) in this procedure and were rated relative to their inhibition of conditioned avoidance responding. A similar test procedure (Discrete Trial) in which a lever press was substituted for a shelf-jump was used to establish the oral (p.o.) activity of the test compounds. Orally active compounds were tested over a full dose range and the Avoidance Block activities reported as "AB50 's" (mg./kg.).

[2] = system: conditioned avoidance responding; test: Conditioned avoidance, Discrete Trial (lever press); assay type: in vivo, rat (male CD, Charles River); details: for Conditioned Avoidance, Discrete Trial AB50: p.o.; for ED50: Rattus norvegicus, po, read-out: Conditioned Avoidance, Discrete Trial AB50
Excerpt: as §1

[3] = system: apomorphine-induced stereotyped behavior and climbing; test: Antagonism of apomorphine-induced stereotyped behavior and climbing; assay type: in vivo, mouse (CF-1, Charles River); details: for Apomorphine Antagonism, Stereotypy ED50 / Apomorphine Antagonism, Climbing ED50: p.o.; for Apomorphine Antagonism, Stereotypy ED50 / ED50 / Apomorphine Antagonism, Climbing ED50: apomorphine 1 mg/kg s.c.; for ED50: Mus musculus, po; for Ratio of ED50 for stereotyped behavior to ED50 for climbing: standard antipsychotic drugs, high ratio = low extrapyramidal liability
Description: Readings are repeated every five minutes during a thirty minute test session. […] The ratio of the ED50 for stereotyped behavior of the ED50 for climbing is calculated.

[4] = target: T1, D-2 dopamine receptor (Rattus norvegicus, UniProt P61169); test: [^3 H] Spiroperidol binding inhibition (D-2 dopamine receptor, homogenized limbic brain tissue)
T1 construct: from tissue; host or cells: homogenized limbic brain tissue
Excerpt: The results of this testing with compounds representative of the invention whose production is exemplified, infra, are as follows: […]

[5] = target: T2, 5-HT1A serotonin receptor (Rattus norvegicus, UniProt P19327); test: Inhibition of [^3 H] 8-OH DPAT binding
T2 construct: from tissue
T2 sequence (P19327 1-422): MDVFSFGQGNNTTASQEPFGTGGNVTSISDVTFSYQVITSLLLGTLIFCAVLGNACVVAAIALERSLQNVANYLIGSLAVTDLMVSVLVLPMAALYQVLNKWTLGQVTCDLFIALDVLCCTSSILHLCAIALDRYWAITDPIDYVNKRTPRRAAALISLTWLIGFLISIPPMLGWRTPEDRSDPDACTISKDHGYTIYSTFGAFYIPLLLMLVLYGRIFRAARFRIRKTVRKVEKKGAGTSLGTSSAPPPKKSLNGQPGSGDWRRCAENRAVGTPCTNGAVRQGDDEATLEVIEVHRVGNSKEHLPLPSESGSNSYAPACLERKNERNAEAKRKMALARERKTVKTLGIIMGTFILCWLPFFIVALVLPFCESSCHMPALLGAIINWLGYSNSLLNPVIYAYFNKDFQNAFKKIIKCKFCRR
Description: 8-OH DPAT (dipropylaminotetralin) from the 5-HT1A serotonin receptor by the procedure of Hall et al., J. Neurochem.

[6] = read-out: Apomorphine Antagonism, Climbing ED50
[7] = read-out: Apomorphine Antagonism, Stereotypy ED50

T1 sequence (P61169 whole entry): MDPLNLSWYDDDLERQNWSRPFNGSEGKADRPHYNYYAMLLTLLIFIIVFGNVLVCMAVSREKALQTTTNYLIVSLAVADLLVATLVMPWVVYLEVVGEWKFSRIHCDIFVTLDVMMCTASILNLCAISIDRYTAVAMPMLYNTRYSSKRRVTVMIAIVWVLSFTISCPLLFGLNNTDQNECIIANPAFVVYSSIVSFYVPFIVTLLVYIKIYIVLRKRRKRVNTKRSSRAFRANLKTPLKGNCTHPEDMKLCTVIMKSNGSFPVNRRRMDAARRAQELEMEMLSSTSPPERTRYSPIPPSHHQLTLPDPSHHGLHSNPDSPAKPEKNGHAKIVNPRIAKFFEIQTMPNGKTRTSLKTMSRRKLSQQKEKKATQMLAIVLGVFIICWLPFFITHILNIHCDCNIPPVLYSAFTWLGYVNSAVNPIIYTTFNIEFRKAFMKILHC

Row | SMILES | inhibition in vivo at 40 mg/kg [1] [%] | Conditioned Avoidance, Discrete Trial AB50 [2] | Apomorphine Antagonism, Stereotypy ED50 [3] | inhibition at 1 µM [4] [%] | pKi [5] | pKi [4] | ED50 [3, 6] [mg/kg] | ED50 [2] [mg/kg] | Apomorphine Antagonism, Climbing ED50 [3] | inhibition at 1 µM [5] [%] | ED50 [3, 7] [mg/kg] | Affinity for the 5-HT1A serotonin receptor (in words) [5] | Ratio of ED50 for stereotyped behavior to ED50 for climbing [3]
1 | O=C1C2CCCC(C2)C(=O)N1CCCCN1CCN(c2ncccn2)CC1 [Example 1, 3-[4-[4-(2-Pyrimidinyl)-1-piperazinyl]butyl]-3-azabicyclo[3.3.1]nonane-2,4-dione] | ~80 | inactive | inactive | 38 | 8.00 |  |  |  |  |  |  |  | 
2 | O=C1C2CCC(C2)C(=O)N1CCCCN1CCN(c2ncccn2)CC1 [Example 2, 3-[4-[4-(2-Pyrimidinyl)-1-piperazinyl]butyl]-3-azabicyclo[3.2.1]octane-2,4-dione] | > 20 | weak | inactive |  | 6.97 | 5.58 |  |  |  |  |  |  | 
3 | O=C1C2CCC(O2)C(=O)N1CCCCN1CCN(c2ncccn2)CC1 [Example 3, 3-[4-[4-(2-Pyrimidinyl)-1-piperazinyl]butyl]-8-oxa-3-azabicyclo[3.2.1]octane-2,4-dione] | ~80 | weak | inactive | 44 | 7.51 |  |  |  |  |  |  |  | 
4 | O=C1C2CCC(S2)C(=O)N1CCCCN1CCN(c2ncccn2)CC1 [Example 4, 3-[4-[4-(2-Pyrimidinyl)-1-piperazinyl]butyl]-8-thia-3-azabicyclo[3.2.1]octane-2,4-dione] | > 20 | inactive | inactive | 12 | 7.34 |  | 53.3 |  |  |  |  |  | 
5 | O=C1C2CCCC(S2)C(=O)N1CCCCN1CCN(c2ncccn2)CC1 [Example 5, 3-[4-[4-(2-Pyrimidinyl)-1-piperazinyl]butyl]-9-thia-3-azabicyclo[3.3.1]nonane-2,4-dione] | > 20 |  | inactive | 27 | 7.80 |  |  | 47.3 | inactive |  |  |  | 
6 | O=C1C2CCCC(C(=O)N1CCCCN1CCN(c3ncccn3)CC1)[S+]2[O-] (stereo not drawn) [Example 6, 3-[4-[4-(2-Pyrimidinyl)-1-piperazinyl]butyl]-9-thia-3-azabicyclo[3.3.1]nonane-2,4-dione-9-oxide] | > 20 | inactive | inactive | 14 | 7.05 |  |  |  | inactive |  |  |  | 
7 | O=C1C2CCCC(C2)C(=O)N1CCCCN1CCN(c2cncc(Cl)n2)CC1 [Example 7, 2-[4-[4-(6-Chloro-2-pyrazinyl)-1-piperazinyl]butyl]-3-azabicyclo[3.3.1]nonane-2,4-dione] | ~80 |  | inactive | 21 | 7.51 |  |  | 34.1 |  |  |  |  | 
8 | O=C1C2CCC(C2)C(=O)N1CCCCN1CCN(c2cncc(Cl)n2)CC1 [Example 8, 3-[4-[4-(6-Chloro-2-pyrazinyl)-1-piperazinyl]butyl]-3-azabicyclo[3.2.1]octane-2,4-dione] | ~80 |  | inactive | 12 |  |  | 15.7 | 33.6 |  | 68 |  |  | 
9 | O=C1C2CCC(C2)C(=O)N1CCCCN1CCN(c2ccc3ccccc3n2)CC1 [Example 9, 3-[4-[4-(2-Quinolyl)-1-piperazinyl]butyl]-3-azabicyclo[3.2.1]octane-2,4-dione] | > 20 |  | inactive | 31 | 7.22 |  | 40.9 | 98.2 |  |  |  |  | 
10 | O=C1C2CCC(C2)C(=O)N1CCCCN1CCN(c2cccc(C(F)(F)F)c2)CC1 [Example 10, 3-[4-[4-[3-(Trifluoromethyl)phenyl]-1-piperazinyl]butyl]-3-azabicyclo[3.2.1]octane-2,4-dione] | ~80 |  |  |  | 8.44 | 7.10 | 1.05 | 7.03 |  |  | 4.98 |  | 
11 | O=C1C2CCC(C2)C(=O)N1CCCCN1CCN(c2cccc(Cl)c2)CC1 [Example 11, 3-[4-[4-(3-Chlorophenyl)-1-piperazinyl]butyl]-3-azabicyclo[3.2.1]octane-2,4-dione] | ~80 |  |  |  | 8.41 | 6.89 | 0.79 | 27.1 |  |  | 2.2 |  | 
12 | O=C1C2CCC(O2)C(=O)N1CCCCN1CCN(c2cncc(Cl)n2)CC1 [Example 12, 3-[4-[4-(6-Chloro-2-pyrazinyl)-1-piperazinyl]butyl]-8-oxa-3-azabicyclo[3.2.1]octane-2,4-dione] | > 20 | weak | inactive | 7 |  |  | 51.6 |  |  | 54 |  |  | 
13 | O=C1C2CCCC(O2)C(=O)N1CCCCN1CCN(c2ncccn2)CC1 [Example 13, 3-[4-[4-(2-Pyrimidinyl)-1-piperazinyl]butyl]-9-oxa-3-azabicyclo[3.3.1]nonane-2,4-dione] | ~80 |  | inactive | 17 | 6.91 |  | 0.24 | 86.2 |  |  |  |  | 
14 | O=C1C2CCCC(S2)C(=O)N1CCCCN1CCN(c2cncc(Cl)n2)CC1 [Example 14, 3-[4-[4-(6-Chloro-2-pyrazinyl)-1-piperazinyl]butyl]-9-thia-3-azabicyclo[3.3.1]nonane-2,4-dione] | > 20 |  | inactive | 34 | 7.45 |  |  | 35.6 |  |  |  |  | 
15 | O=C1C2CCCC(O2)C(=O)N1CCCCN1CCN(c2cncc(Cl)n2)CC1 [Example 15, 3-[4-[4-(6-Chloro-2-pyrazinyl)-1-piperazinyl]butyl]-9-oxa-3-azabicyclo[3.3.1]nonane-2,4-dione] | ~80 | weak | inactive | 21 |  |  |  |  |  | 63 |  |  | 
16 | O=C1C2CCCC(C2)C(=O)N1CCCCN1CCN(c2cnccn2)CC1 [Example 16, 3-[4-[4-(2-Pyrazinyl)-1-piperazinyl]butyl]-3-azabicyclo[3.3.1]nonane-2,4-dione] | ~80 | inactive |  | 12 | 6.89 |  | 9.17 |  |  |  | 54.1 |  | 
17 | COc1ccccc1N1CCN(CCCCN2C(=O)C3CCC(C3)C2=O)CC1 [Example 17, 3-[4-[4-(2-Methoxyphenyl)-1-piperazinyl]butyl]-3-azabicyclo[3.2.1]octane-2,4-dione] | ~80 |  |  | 0 | 8.30 |  | 0.83 | 29.4 |  |  | 5.83 |  | 
18 | CC1(C)C2CCC1C(=O)N(CCCCN1CCN(c3cncc(Cl)n3)CC1)C2=O [Example 18, 3-[4-[4-(6-Chloro-2-pyrazinyl)-1-piperazinyl]butyl]-8,8-dimethyl-3-azabicyclo[3.2.1]octane-2,4-dione] | > 20 | inactive | inactive | 21 |  |  | 43 |  |  | 76 |  |  | 
19 | O=C1CC2(CCCC2)CC(=O)N1CCCCN1CCN(c2ncccn2)CC1 [buspirone, reference compound] |  |  |  |  |  |  |  |  |  |  |  | potent affinity | 
20 | CN(C)CCCN1c2ccccc2Sc2ccc(Cl)cc21 [chlorpromazine, reference compound] |  |  |  |  |  |  |  |  |  |  |  |  | 1.51
21 | O=C(CCCN1CCC(O)(c2ccc(Cl)cc2)CC1)c1ccc(F)cc1 [haloperidol, reference compound] |  |  |  |  |  |  |  |  |  |  |  |  | 1.00
